Measurements taken from ChEMBL document CHEMBL5052827, “Ash1l inhibitors and methods of treatment therewith” (2020).
The source made the active and inactive calls. The calls are words filed in the database; no cut-off is given here.

How the values were obtained:
[1] = target: Histone-lysine N-methyltransferase ASH1L (Homo sapiens, UniProt Q9NR48); assay: Inhibition of ASH1L SET-BAH construct (unknown origin) (2069 to 2833 residues) using SAM as substrate incubated for 1 hr and measured after 45 mins by Beckman scintillation counter method
MV4-11 [2] = assay: Antitumor activity in human MV4-11-Luc cells xenografted female NSG mouse assessed as decrease in leukemia progression at 25 mg/kg, ip administered twice a day for 21 days; assay type: functional, organism-based; conditions: time 21.0 day
MOLM-13 = assay: Antiproliferative activity against human MOLM-13 cells measured after 14 days by MTT assay; assay type: functional; conditions: MOLM-13, 336 h, time 14 day
KOPN-8 = assay: Antiproliferative activity against human KOPN-8 cells measured after 14 days by MTT assay; assay type: functional; conditions: KOPN-8, 336 h, time 14 day
[3] = Cytotoxicity against human CD34-positive cells; assay type: toxicity, cell-based, CD34-positive (myeloid/lymphoid) cell
K562 = assay: Antiproliferative activity against human K562 cells measured after 14 days by MTT assay; assay type: functional; conditions: K562, 336 h, time 14 day
MV4-11 [4] = assay: Induction of human MV4-11 cell differentiation at 6 to 12 uM measured after 7 days; assay type: functional, cell-based; conditions: dose 6-12 µM, time 7.0 day
MV4-11 [5] = assay: Antiproliferative activity against human MV4-11 cells measured after 14 days by MTT assay; assay type: functional; conditions: MV4-11, 336 h, time 14 day
SEM cells = assay: Antiproliferative activity against human SEM cells measured after 14 days by MTT assay; assay type: functional; conditions: 336 h, time 14 day

IC50 [1] [µM]	Compound	further results
< 20	COc1ccc(Cn2cnc(NCc3ccc4c(-c5cccc(C(N)=S)c5)cn(C5CCOCC5)c4c3)c2[N+](=O)[O-])cc1	
< 20	NC(=S)c1cccc(-c2cn(C3CCN(S(=O)(=O)C(F)(F)F)CC3)c3cc(NC(=O)CCOCCOCCOCCOCCOCCOCCNC(=O)CCCC[C@@H]4SC[C@@H]5NC(=O)N[C@@H]54)ccc23)c1	
< 20	CS(=O)(=O)N1CCC(n2cc(-c3cccc(C(N)=S)c3)c3ccc(NC(=O)CCOCCOCCOCCOCCNC(=O)CCCC[C@@H]4SC[C@@H]5NC(=O)N[C@@H]54)cc32)CC1	
< 20	COc1cccc2[nH]cc(-c3cccc(C(N)=S)c3)c12	
< 20	COCCN1CC(C(=O)NCc2ccc3c(-c4cccc(C(N)=S)c4)cn(C4CCN(S(C)(=O)=O)CC4)c3c2)C1	
< 20	COCCC(=O)Nc1ccc2c(-c3cccc(C(N)=S)c3)cn(CC(CF)CF)c2c1	
< 20	CC(C)S(=O)(=O)N1CCC(n2cc(-c3cccc(C(N)=S)c3)c3ccc(CNC(=O)C4CNC4)cc32)CC1	
< 20	CS(=O)(=O)Nc1ccc2c(-c3cccc(C(N)=S)c3)cn(C3CCC(F)(F)CC3)c2c1	
< 20	CC(C)S(=O)(=O)N1CCC(n2cc(-c3cccc(C(N)=S)c3)c3ccc(NC(=O)CCCC[C@@H]4SC[C@@H]5NC(=O)N[C@@H]54)cc32)CC1	
< 20	CC(C)S(=O)(=O)N1CCC(n2cc(-c3cccc(C(N)=S)c3)c3ccc(CNC(=O)C4CCCN4)cc32)CC1 (configuration not stated)	
< 20	NC(=S)c1cccc(-c2cn(C3CCN(S(=O)(=O)C(F)(F)F)CC3)c3cc(CNc4nnc(N)s4)ccc23)c1	
< 20	CS(=O)(=O)N1CCC(n2cc(-c3cccc(C(N)=S)c3)c3ccc(NC(=O)CCOCCOCCOCCOCCOCCOCCOCCOCCNC(=O)CCCC[C@@H]4SC[C@@H]5NC(=O)N[C@@H]54)cc32)CC1	
	NC(=S)c1cccc(-c2cn(C3CCN(S(=O)(=O)C(F)(F)F)CC3)c3cc(CNC(=O)C4CNC4)ccc23)c1	Activity (MV4-11 [2]): Active
< 20	NC(=S)c1cccc(-c2cn(C3CCN(S(=O)(=O)CCCNC(=O)CCCC[C@@H]4SC[C@@H]5NC(=O)N[C@@H]54)CC3)c3cc(CNC(=O)c4c[nH]c5ccccc45)ccc23)c1	
	CC1CN(S(C)(=O)=O)CCC1n1cc(-c2cccc(C(N)=S)c2)c2ccc(N)cc21 (configuration not stated)	GI50 (MOLM-13): 2.7 µM; GI50 (KOPN-8): 2.5 µM; GI50 [3]: > 50 µM; GI50 (K562): > 25 µM; Activity (MV4-11 [4]): Active
< 20	CCCOC1CNC(C(=O)NCc2ccc3c(-c4cccc(C(N)=S)c4)cn(C4CCN(S(=O)(=O)C(C)C)CC4)c3c2)C1 (configuration not stated)	
< 20	NC(=S)c1cccc(-c2cn(C3CCOCC3)c3cc(CNc4nnc(N)[nH]4)ccc23)c1	
< 20	CS(=O)(=O)N1CCC(n2cc(-c3cccc(C(N)=S)c3)c3ccc(CNC(=O)Cc4c[nH]cn4)c(Cl)c32)CC1	
< 20	NC(=S)c1cccc(-c2cn(C3CCN(c4nccs4)CC3)c3cc(CNC(=O)c4c[nH]c5ncccc45)ccc23)c1	
< 20	NC(=S)c1cccc(-c2cn(CC(CF)CF)c3cc(NC(=O)CCc4nccs4)ccc23)c1	

IC50 [1] [µM]	Compound	further results
< 20	CCCOC1CCNC1C(=O)NCc1ccc2c(-c3cccc(C(N)=S)c3)cn(C3CCN(S(=O)(=O)C(C)C)CC3)c2c1 (configuration not stated)	
< 20	COc1ccc(Cn2cnc([N+](=O)[O-])c2NCc2ccc3c(-c4cccc(C(N)=S)c4)cn(C4CCOCC4)c3c2)cc1	
< 20	NC(=S)c1cccc(-c2cn(C3CCN(S(=O)(=O)C(F)(F)F)CC3)c3cc(CNC(=O)C4CNCCN4)ccc23)c1 (configuration not stated)	
< 20	NC(=S)c1cccc(-c2cn(C3CCN(S(=O)(=O)C(F)(F)F)CC3)c3cc(CNC(=O)[C@@H]4C[C@H](O)CN4)ccc23)c1	
< 20	CN1CC(C(=O)NCc2ccc3c(-c4cccc(C(N)=S)c4)cn(C4CCN(S(=O)(=O)C(F)(F)F)CC4)c3c2Cl)C1	
< 20	CS(=O)(=O)N1CCC(n2cc(-c3cccc(C(N)=S)c3)c3ccc(NC(=O)CCCCCNC(=O)CCCC[C@@H]4SC[C@@H]5NC(=O)N[C@@H]54)cc32)CC1	
< 20	CS(=O)(=O)Nc1ccc2c(-c3cccc(C(N)=S)c3)cn(C3CCOCC3)c2c1	
< 20	CC(C)S(=O)(=O)N1CCC(n2cc(-c3cccc(C(N)=S)n3)c3ccc(CNc4nnc(N)s4)cc32)CC1	
< 20	NC(=S)c1cccc(-c2cn(C3CCC(F)(F)CC3)c3cc(CNC(=O)C4CNC4)ccc23)c1	
< 20	CC(C)S(=O)(=O)N1CCC(n2cc(-c3cccc(C(N)=S)c3)c3ccc(CNC(=O)C4CCN4)cc32)CC1 (configuration not stated)	
< 20	CC1CC(n2cc(-c3cccc(C(N)=S)c3)c3ccc(CNc4nnc(N)s4)cc32)CCO1 (configuration not stated)	
< 20	C[C@@H]1CN[C@H](C(=O)NCc2ccc3c(-c4cccc(C(N)=S)c4)cn(C4CCN(S(=O)(=O)C(F)(F)F)CC4)c3c2)C1	
< 20	NC(=S)c1cccc(-c2cn(C3CCN(S(=O)(=O)C(F)(F)F)CC3)c3cc(CNC(=O)[C@@H]4C[C@H](F)CN4)ccc23)c1	
< 20	CC(C)S(=O)(=O)N1CCC(n2cc(-c3cccc(C(N)=S)c3)c3ccc(N)cc32)CC1	
< 20	CS(=O)(=O)N1CCC(n2cc(-c3cccc(C(N)=S)c3)c3ccc(NC(=O)CCCCCNC(=O)c4ccc5c(c4)C(=O)OC54c5ccc(O)cc5Oc5cc(O)ccc54)cc32)CC1	
< 20	CCN1CC(C(=O)NCc2ccc3c(-c4cccc(C(N)=S)c4)cn(C4CCN(c5nccs5)CC4)c3c2)C1	
< 20	COCCC(=O)Nc1ccc2c(-c3cccc(C(N)=S)c3)cn(C3CCC(F)(F)CC3)c2c1	
< 20	CCC(=O)Nc1ccc2c(-c3cccc(C(N)=S)c3)cn(CC(CF)CF)c2c1	
	CC(C)S(=O)(=O)N1CCC(n2cc(-c3cccc(C(N)=S)c3)c3ccc(CNc4nnc(N)s4)cc32)CC1	GI50 (MV4-11 [5]): 2.5 µM; GI50 (MOLM-13): 5.5 µM; GI50 (KOPN-8): 5 µM; GI50 (SEM cells): 2 µM; GI50 (K562): > 50 µM
< 20	NC(=S)c1cccc(-c2cn(C3CCOCC3)c3cc(CNc4cc[nH]n4)ccc23)c1	

IC50 [1] [µM]	Compound	further results
< 20	CC(C)S(=O)(=O)N1CCC(n2cc(-c3cccc(C(N)=S)c3)c3ccc(N4CCCC4=O)cc32)CC1	
< 20	NC(=S)c1cccc(-c2cn(CC(CF)CF)c3cc(NC(=O)Cc4nccs4)ccc23)c1	
< 20	NC(=S)c1cccc(-c2cn(C3CCN(S(=O)(=O)C(F)(F)F)CC3)c3cc(CNC(=O)NCC4CCN4)ccc23)c1 (configuration not stated)	
< 20	CS(=O)(=O)N1CC2CCC1CC2n1cc(-c2cccc(C(N)=S)c2)c2ccc(N)cc21 (configuration not stated)	
< 20	CC1CN(S(C)(=O)=O)CCC1n1cc(-c2cccc(C(N)=S)c2)c2ccc(CNC(=O)C3CN(C)C3)cc21 (configuration not stated)	
< 20	Cc1cc(N2CCC(n3cc(-c4cccc(C(N)=S)c4)c4ccc(CNc5nnc(N)s5)cc43)CC2)n(C)n1	
< 20	NC(=S)c1cccc(-c2cn(C3CCC(F)(F)CC3)c3cc(NC(=O)CCCCCNC(=O)c4ccc5c(c4)C(=O)OC54c5ccc(O)cc5Oc5cc(O)ccc54)ccc23)c1	
< 20	CN(C)c1cccc2c(S(=O)(=O)NCCCCCCCCC(=O)Nc3ccc4c(-c5cccc(C(N)=S)c5)cn(C5CCC(F)(F)CC5)c4c3)cccc12	
< 20	NC(=S)c1cccc(-c2cn(C3CCC(F)(F)CC3)c3c(Cl)c(N)ccc23)c1	
< 20	CC(=O)Nc1ccc2c(-c3cccc(C(N)=S)c3)cn(C3CCN(S(=O)(=O)C(F)(F)F)CC3)c2c1	
< 20	NC(=S)c1cccc(-c2cn(C3CCN(c4nccs4)CC3)c3cc(CNC(=O)C4CNC4)ccc23)c1	
< 20	NC(=S)c1cccc(-c2cn(C3CCN(c4nccs4)CC3)c3cc(CNc4nnc(N)s4)ccc23)c1	
< 20	CC1CC(n2cc(-c3cccc(C(N)=S)c3)c3ccc(N)cc32)CCN1S(C)(=O)=O (configuration not stated)	
< 20	CCC(=O)Nc1ccc2c(-c3cccc(C(N)=S)c3)cn(C3CCN(S(=O)(=O)C(C)C)CC3)c2c1	
< 20	CC(C)S(=O)(=O)N1CCC(n2cc(-c3cccc(C(N)=S)c3)c3ccc(CNC(=O)C4CN(C)C4)cc32)CC1	
< 20	CNC(=O)NCc1ccc2c(-c3cccc(C(N)=S)c3)cn(C3CCN(S(=O)(=O)C(F)(F)F)CC3)c2c1	
< 20	CCCCCCN1CC(C(=O)NCc2ccc3c(-c4cccc(C(N)=S)c4)cn(C4CCN(S(C)(=O)=O)CC4)c3c2)C1	
< 20	CCCCCCN1CC(C(=O)NCc2ccc3c(-c4cccc(C(N)=S)c4)cn(C4CCN(S(=O)(=O)C(F)(F)F)CC4)c3c2)C1	
< 20	CC1CN(S(C)(=O)=O)CCC1n1cc(-c2cccc(C(N)=S)c2)c2ccc(CNc3nnc(N)s3)cc21 (configuration not stated)	
